In the supplement of paper PMC11061612:

How the values were obtained:
Assay in all cases: combination Emax (second highest fraction inhibited in the dose matrix, 72 h); higher = more inhibition; extreme values may be limits of the assay
[1] = system: CAMA-1 (Breast Carcinoma)
How it was run: (§1)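 Bliss excess equals the observed combination effect minus the expected value EA + EB − EA·EB, where EA and EB are the effects of each agent alone. Combination Emax is the second-highest inhibition within the matrix. Inhibition was scaled from CellTiter-Glo 2.0 luminescence, with 0 set by vehicle wells and 1 by blank wells, after 72 hours of two-drug dosing of cells plated in 1536-well plates.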

[2] = system: COLO-678 (Colorectal Carcinoma)
How it was run: as §1

[3] = system: DND-41 (T-Lymphoblastic Leukemia)
How it was run: as §1

[4] = system: DiFi (Colorectal Carcinoma)
How it was run: as §1

[5] = system: ES1 (Ewing's Sarcoma)
How it was run: as §1

[6] = system: EVSA-T (Breast Carcinoma)
How it was run: as §1

[7] = system: K-562 (Chronic Myelogenous Leukemia)
How it was run: as §1

[8] = system: MFM-223 (Breast Carcinoma)
How it was run: as §1

[9] = system: MKN28 (Gastric Carcinoma)
How it was run: as §1

[10] = system: MOLT-16 (T-Lymphoblastic Leukemia)
How it was run: as §1

[11] = system: NCI-H1792 (Lung Adenocarcinoma)
How it was run: as §1

[12] = system: P12-ICHIKAWA (T-Lymphoblastic Leukemia)
How it was run: as §1

[13] = system: SW837 (Colorectal Carcinoma)
How it was run: as §1

[14] = system: TC-71 (Ewing's Sarcoma)
How it was run: as §1

[15] = system: TE-6 (Esophageal Squamous Cell Carcinoma)
How it was run: as §1

[16] = system: TOV-112D (Ovarian Carcinoma)
How it was run: as §1

[17] = system: U251 (Low Grade Glioma)
How it was run: as §1

[18] = system: WIL2-NS (Non-Cancerous)
How it was run: as §1

[19] = system: WM-115 (Melanoma)
How it was run: as §1

Structure (SMILES) | combination Emax [1] | combination Emax [2] | combination Emax [3] | combination Emax [4] | combination Emax [5] | combination Emax [6] | combination Emax [7] | combination Emax [8] | combination Emax [9] | combination Emax [10] | combination Emax [11] | combination Emax [12] | combination Emax [13] | combination Emax [14] | combination Emax [15] | combination Emax [16] | combination Emax [17] | combination Emax [18] | combination Emax [19]
C[C@@H](c1ccc2nccn2c1)n1nnc2ncc(-c3cnn(C)c3)nc21 [Savolitinib] + CC1(C)CCC(CN2CCN(c3ccc(C(=O)NS(=O)(=O)c4ccc(NCC5CCOCC5)c([N+](=O)[O-])c4)c(Oc4cnc5[nH]ccc5c4)c3)CC2)=C(c2ccc(Cl)cc2)C1 [Venetoclax] (first compound max 1 µM, 7x7, partner max 1 µM) | 0.17 | 0.146 | 0.233 | 0.11 | 0.113 | 0.201 | 0.155 | 0.0596 | 0.0564 | 0.58 | 0.108 | 0.188 | 0.14 | 0.119 | 0.124 | 0.0298 | 0.116 | 0.163 | 0.199
Cc1nc(Nc2ncc(C(=O)Nc3c(C)cccc3Cl)s2)cc(N2CCN(CCO)CC2)n1 [Dasatinib] + CC(=O)Nc1cccc(-n2c(=O)n(C3CC3)c(=O)c3c(Nc4ccc(I)cc4F)n(C)c(=O)c(C)c32)c1 [Trametinib] (first compound max 2 µM, 7x7, partner max 1 µM) | 0.127 | 0.559 | 0.263 | 0.784 | 0.0713 | 0.176 | 0.747 | 0.561 | 0.417 | 0.326 | 1 | 0.517 | 0.764 | 0.146 | 0.535 | 0.749 | 0.781 | 0.721 | 0.805
Cn1cnc2c(F)c(Nc3ccc(Br)cc3Cl)c(C(=O)NOCCO)cc21 [Selumetinib] + C=CCn1c(=O)c2cnc(Nc3ccc(N4CCN(C)CC4)cc3)nc2n1-c1cccc(C(C)(C)O)n1 [AZD1775] (first compound max 10 µM, partner max 1 µM) | 0.148 | 0.52 | 0.898 | 0.849 | 0.602 | 0.156 | 0.834 | 0.446 | 0.276 | 1 | 0.632 | 1 | 0.549 | 0.355 | 0.506 | 0.48 | 0.326 | 0.937 | 0.402
COc1nnc2ccc(N3CCC(c4ccc(OCCN5CCN(C)C(=O)[C@H]5C)cc4)CC3)nn12 [AZD5153] + Cc1c2c(nn1C)CSCc1cc(n(C)n1)CSc1cc(c3ccccc3c1)OCCCc1c(C(=O)O)n(C)c3c-2c(Cl)ccc13 [AZD5991] (first compound max 1 µM, 7x7, partner max 1 µM) | 0.951 | 0.51 | 0.845 | 0.768 | 0.955 | 1 | 0.5 | 0.587 | 0.462 | 1 | 0.877 | 1 | 0.571 | 0.996 | 0.77 | 0.986 | 0.65 | 0.849 | 0.707
NC1(C(=O)N[C@@H](CCO)c2ccc(Cl)cc2)CCN(c2ncnc3[nH]ccc23)CC1 [Capivasertib] + CC(=O)c1c(C)c2cnc(Nc3ccc(N4CCNCC4)cn3)nc2n(C2CCCC2)c1=O [Palbociclib] (first compound max 10 µM, 7x7, partner max 10 µM) | 0.668 | 0.354 | 0.462 | 0.619 | 0.765 | 0.942 | 0.257 | 0.882 | 0.155 | 0.924 | 0.553 | 0.739 | 0.151 | 0.511 | 0.723 | 0.542 | 0.441 | 0.849 | 0.574
CC(=O)c1c(C)c2cnc(Nc3ccc(N4CCNCC4)cn3)nc2n(C2CCCC2)c1=O [Palbociclib] + Cn1cnc2c(F)c(Nc3ccc(Br)cc3Cl)c(C(=O)NOCCO)cc21 [Selumetinib] (first compound max 10 µM, 7x7, partner max 10 µM) | 0.102 | 0.525 | 0.489 | 0.751 | 0.616 | 0.287 | 0.237 | 0.317 | 0.3 | 0.827 | 0.651 | 0.77 | 0.532 | 0.396 | 0.425 | 0.473 | 0.297 | 0.74 | 0.415
